From PubChem BioAssay (NCI)
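Each compound was tested at five concentrations against cells in 96-well plates for 48 hours. Abbreviation: GI50, concentration required for 50% inhibition of growth. The concentration for full growth arrest is given as TGI.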

Tests used:
Assay in all cases: NCI anticancer screen, dose series, 48 h
[1] = test system: CCRF-CEM leukemia
[2] = test system: HOP-62 NSCLC
[3] = test system: MOLT-4 leukemia
[4] = test system: UACC-62 melanoma
[5] = test system: SR leukemia
[6] = test system: SNB-19 CNS
[7] = test system: IGROV1 ovarian
[8] = test system: UO-31 renal
[9] = test system: NCI-H226 lung
[10] = test system: HL-60(TB) leukemia
[11] = test system: SF-268 CNS
[12] = test system: RXF 393 renal
[13] = test system: HCT-116 colon
[14] = test system: UACC-257 melanoma
[15] = test system: K-562 leukemia
[16] = test system: PC-3 prostate
[17] = test system: SF-539 CNS
[18] = test system: NCI-H23 lung
[19] = test system: SNB-75 CNS
[20] = test system: OVCAR-4 ovarian
[21] = test system: HT29 colon
[22] = test system: SN12C renal
[23] = test system: MDA-MB-435
[24] = test system: OVCAR-8 ovarian
[25] = test system: HCC-2998 colon
[26] = test system: SK-MEL-2 melanoma
[27] = test system: MDA-MB-231 breast
[28] = test system: LOX IMVI melanoma
[29] = test system: OVCAR-3 ovarian
[30] = test system: HS 578T breast
[31] = test system: TK-10 renal
[32] = test system: M14 melanoma
[33] = test system: HCT-15 colon
[34] = test system: NCI-H522 lung
[35] = test system: BT-549 breast
[36] = test system: OVCAR-5 ovarian
[37] = test system: T-47D breast
[38] = test system: SK-MEL-28 melanoma
[39] = test system: 786-0 renal
[40] = test system: MCF7 breast
[41] = test system: A549 NSCLC
[42] = test system: SK-MEL-5 melanoma
[43] = test system: KM12 colon
[44] = test system: COLO 205 colon
[45] = test system: MALME-3M melanoma
[46] = test system: EKVX NSCLC
[47] = test system: SF-295 CNS
[48] = test system: HOP-92 NSCLC
[49] = test system: ACHN renal
[50] = test system: NCI/ADR-RES ovarian
[51] = test system: SK-OV-3 ovarian
[52] = test system: U251 CNS
[53] = test system: DU-145 prostate
[54] = test system: NCI-H460 lung
[55] = test system: A498 renal
[56] = test system: SW-620 colon
[57] = test system: CAKI-1 renal
[58] = test system: RPMI-8226 leukemia

## CCc1c2c(nc3ccc(OC(=O)NCc4ccc(B5OC(C)(C)C(C)(C)O5)cc4)cc13)-c1cc3c(c(=O)n1C2)COC(=O)[C@]3(O)CC
[1]
  GI50: < 10 nM
  TGI: > 100000 nM
[2]
  GI50: < 10 nM
  TGI: 2920 nM
[3]
  GI50: < 10 nM
  TGI: > 100000 nM
[4]
  GI50: < 10 nM
  TGI: 220 nM
[5]
  GI50: < 10 nM
  TGI: > 100000 nM
[6]
  GI50: < 10 nM
  TGI: > 100000 nM
[7]
  GI50: 214 nM
  TGI: > 42700 nM
[8]
  GI50: 27.4 nM
  TGI: 294 nM
[9]
  GI50: 21.6 nM
  TGI: 635 nM
[10]
  GI50: < 19.1 nM
[11]
  GI50: < 10 nM
  TGI: 4040 nM
[12]
  GI50: 27.9 nM
  TGI: 322 nM
[13]
  GI50: < 10.8 nM
  TGI: > 100000 nM
[14]
  GI50: 226 nM
  TGI: 3360 nM
[15]
  GI50: 34.3 nM
  TGI: > 100000 nM
[16]
  GI50: 144 nM
  TGI: > 100000 nM
[17]
  GI50: < 10 nM
  TGI: 77.1 nM
[18]
  GI50: 18.1 nM
  TGI: 771 nM
[19]
  GI50: 19.9 nM
  TGI: 448 nM
[20]
  GI50: 392 nM
  TGI: 63700 nM
[21]
  GI50: 120 nM
  TGI: > 21200 nM
[22]
  GI50: < 10 nM
  TGI: > 100000 nM
[23]
  GI50: 107 nM
  TGI: 2700 nM
[24]
  GI50: 22.8 nM
  TGI: > 100000 nM
[25]
  GI50: 250 nM
  TGI: 3560 nM
[26]
  GI50: 790 nM
  TGI: > 22600 nM
[27]
  GI50: 1590 nM
  TGI: > 84100 nM
[28]
  GI50: < 10 nM
  TGI: 167 nM
[29]
  GI50: 148 nM
  TGI: 3200 nM
[30]
  GI50: 1140 nM
  TGI: 15900 nM
[31]
  GI50: 1600 nM
  TGI: > 91400 nM
[32]
  GI50: < 10 nM
  TGI: 104 nM
[33]
  GI50: 277 nM
  TGI: > 100000 nM
[34]
  GI50: 16.7 nM
  TGI: 3870 nM
[35]
  GI50: 52 nM
  TGI: 2740 nM
[36]
  GI50: 287 nM
  TGI: > 24300 nM
[37]
  GI50: < 10 nM
  TGI: > 100000 nM
[38]
  GI50: 577 nM
  TGI: 8900 nM
[39]
  GI50: 13.6 nM
  TGI: 346 nM
[40]
  GI50: < 10 nM
  TGI: > 100000 nM
[41]
  GI50: 82.5 nM
  TGI: 8090 nM
[42]
  GI50: 35.6 nM
  TGI: 301 nM
[43]
  GI50: 167 nM
  TGI: > 30100 nM
[44]
  GI50: 73.4 nM
  TGI: 11000 nM
[45]
  GI50: 74.1 nM
  TGI: 1310 nM
[46]
  GI50: 758 nM
  TGI: > 81900 nM
[47]
  GI50: 16 nM
  TGI: 3400 nM
[48]
  GI50: 42 nM
  TGI: 2470 nM
[49]
  GI50: 20.2 nM
  TGI: 1130 nM
[50]
  GI50: 51.1 nM
  TGI: > 100000 nM
[51]
  GI50: 28.6 nM
  TGI: 8180 nM
[52]
  GI50: < 10 nM
  TGI: > 100000 nM
[53]
  GI50: 16.8 nM
  TGI: > 100000 nM
[54]
  GI50: 14.1 nM
  TGI: 343 nM
[55]
  GI50: 14.1 nM
  TGI: 175 nM
[56]
  GI50: 22.7 nM
[57]
  GI50: 16.2 nM
  TGI: 1100 nM
[58]
  GI50: 270 nM
  TGI: 3480 nM

## NCCCCCCn1c2c(c3ccccc3c1=O)C(=O)c1ccccc1-2
[1]
  GI50: 512 nM
  TGI: 3210 nM
[2]
  GI50: 1280 nM
  TGI: 4500 nM
[3]
  GI50: 237 nM
  TGI: 972 nM
[4]
  GI50: 1630 nM
  TGI: 3500 nM
[5]
  GI50: 349 nM
  TGI: 2090 nM
[6]
  GI50: 1190 nM
  TGI: 10100 nM
[7]
  GI50: 1070 nM
  TGI: 4310 nM
[8]
  GI50: 442 nM
  TGI: 1850 nM
[9]
  GI50: 1080 nM
  TGI: 3070 nM
[10]
  GI50: 266 nM
  TGI: 1420 nM
[11]
  GI50: 2300 nM
  TGI: 16200 nM
[12]
  GI50: 12000 nM
  TGI: 64800 nM
[13]
  GI50: 909 nM
  TGI: 6110 nM
[14]
  GI50: 2360 nM
  TGI: 5800 nM
[15]
  GI50: 705 nM
  TGI: 5350 nM
[16]
  GI50: 2120 nM
  TGI: 11800 nM
[17]
  GI50: 1240 nM
  TGI: 3590 nM
[18]
  GI50: 1500 nM
  TGI: 6540 nM
[19]
  GI50: 1750 nM
  TGI: 7720 nM
[20]
  GI50: 2190 nM
  TGI: 7240 nM
[21]
  GI50: 1200 nM
  TGI: 4420 nM
[22]
  GI50: 1330 nM
  TGI: 6090 nM
[23]
  GI50: 2050 nM
  TGI: 4760 nM
[24]
  GI50: 1540 nM
  TGI: 11300 nM
[25]
  GI50: 2250 nM
  TGI: 14300 nM
[26]
  GI50: 1870 nM
  TGI: 3540 nM
[27]
  GI50: 1980 nM
  TGI: 5460 nM
[28]
  GI50: 1120 nM
  TGI: 2990 nM
[29]
  GI50: 1980 nM
  TGI: 6240 nM
[30]
  GI50: 2510 nM
  TGI: 11100 nM
[31]
  GI50: 1650 nM
  TGI: 3820 nM
[32]
  GI50: 2280 nM
  TGI: 5000 nM
[33]
  GI50: 717 nM
  TGI: 5860 nM
[34]
  GI50: 1170 nM
  TGI: 2880 nM
[35]
  GI50: 1800 nM
  TGI: 4730 nM
[36]
  GI50: 1880 nM
  TGI: 4600 nM
[37]
  GI50: 1850 nM
  TGI: 5930 nM
[38]
  GI50: 1900 nM
  TGI: 3760 nM
[39]
  GI50: 603 nM
  TGI: > 100000 nM
[40]
  GI50: 744 nM
  TGI: 3610 nM
[41]
  GI50: 1220 nM
  TGI: 25800 nM
[42]
  GI50: 1300 nM
  TGI: 2750 nM
[43]
  GI50: 1380 nM
  TGI: 6900 nM
[44]
  GI50: 1600 nM
  TGI: 13700 nM
[45]
  GI50: 1910 nM
  TGI: 4610 nM
[46]
  GI50: 10300 nM
  TGI: 28800 nM
[47]
  GI50: 1470 nM
  TGI: 5560 nM
[48]
  GI50: 2570 nM
  TGI: 16000 nM
[49]
  GI50: 526 nM
  TGI: 2710 nM
[50]
  GI50: 2460 nM
  TGI: 11700 nM
[51]
  GI50: 720 nM
  TGI: 7420 nM
[52]
  GI50: 1430 nM
  TGI: 12300 nM
[53]
  GI50: 608 nM
  TGI: > 100000 nM
[54]
  GI50: 415 nM
  TGI: 11300 nM
[55]
  GI50: 675 nM
  TGI: 2970 nM
[56]
  GI50: 613 nM
  TGI: 3160 nM
[57]
  GI50: 1960 nM
  TGI: 8250 nM
[58]
  GI50: 1530 nM
  TGI: 6070 nM
